Our source for the CC50 values is patent US6335339B1, “Triazine antiviral compounds” (Scriptgen Pharmaceuticals, Inc., priority 1998, dated 2002).

A word on the CC50: it is the concentration at which the toxic effect on the cells reaches its halfway point.

The subject of one data set is 2.2.15 cells. In words: neutral red dye uptake cytotoxicity. To be noted: 9 days treatment, read-out: 50% Cell Death CC50. In kind it is cell-based. The procedure:
(§1) Further, the antiviral effect of any compound must be measured against its toxicity. Cytotoxicity is measured by the neutral red uptake method using the same cells used for antiviral activity.
(§2) 2b. Compounds were prepared for toxicity treatment as follows: For each compound, a total of 4 concentrations were examined. This required 9 sets of 4 sterile, 1.1 ml minitubes (36 tubes per compound). Into the first tube of each set, sufficient compound was aliquoted to make up 465 μl of the highest test concentration. The other tubes were left empty. The tubes were covered with the rack lids, and stored at −20° C. or at an appropriate temperature. Tubes for the last day of treatment for toxicity testing contain the same amount of compound as used the previous days (not 3xas for the antiviral assays).
(§3) 3b. The cytotoxicity of test compounds was analyzed in a 3.3-fold dilution series as follows. […] (155 μl×3) of RP2 were added to the first tube (containing the aliquot of compound) and 310 μL (155 μl×2) RP2 to each of the 3 remaining tubes. 150 μl of test compound-containing medium were serially transferred from the first tube to the other 3 tubes.
(§4) 5. A single plate was used for the toxicity treatments for each test compound (up to 7 compounds per plates since the top row were reserved for untreated cells on every toxicity plate). To initiate the treatments, the culture medium was removed, and 100 μl of each dilution of every compound were added to each of 3 wells using a configuration similar to that shown above for the antiviral treatments. The untreated cells received 100 μl RP2 per well. Treatment was repeated daily for 9 days.
(§5) The antiviral effect of any compound was evaluated relative to its toxicity. Cells were seeded and treated following the guidelines above, after which a neutral red dye uptake assay was performed to assess toxicity as described below. Other assays of cytotoxicity (e.g., MTT) can be substituted for the procedure described below. Note that this procedure assesses toxicity under culture and treatment conditions which are identical to those used for the antiviral analyses, thereby permitting a determination as to whether the reduction in virus production due to a specific antiviral effect or due to a cytotoxic effect on the host cell. Since the cultures, by necessity, are at confluence, the cytotoxic effects of the test compounds will probably be reduced relative to the cytotoxic effects that would be expected for actively dividing cells.
(§6) 1. Cultures were treated with test compounds on the designated toxicity plates as described above.
(§7) 2. The culture medium was carefully removed 24 hours following the 9th day of treatment. The monolayer was fully removed in the top left three wells (row A, col. 1-3). These wells were used as “blanks” for the plate reader.
(§8) 3. 100 μl DPBS (containing 0.01% neutral red dye) were added to each well, including the empty wells, and Incubated in the tissue culture incubator for 30 minutes.
(§9) 4. The dye was removed carefully and gently, using a multichannel pipetman since the monolayers can become fragile after incubation with neutral red dye. 200 μl DPBS were added to all the wells taking care not to displace the monolayers. The DPBS was removed and 100 μl 50% EtOH/1% glacial acetic acid (in H2O) were added to each well. The plates were mixed for 15 minutes on an orbital platform shaker (120-150 RPM) to allow for full extraction of the dye from the cells.
(§10) 5. Optical absorbance at 510 nm was read in an ELISA type plate reader, using the 3 empty wells to set the background. An average absorbance value was calculated for the 9 untreated cultures on a plate, and the absorbance of dye for the treated cultures on the same plate was expressed as a percentage of that value. This procedure was repeated for each individual plate. […]

Data set [1] can be described thus: neutral red dye uptake cytotoxicity. In kind it is cell-based. To be noted: human, 2.2.15 cells (confluent cultures), 9 days treatment, read-out: 50% Cell Death CC50. The procedure:
as §1, §2, §3, §4, §5, §6, §7, §8, §9, §10

`Oc1ccc(Br)cc1C=NNc1nc(Nc2cccc(C(F)(F)F)c2)nc(N2CCOCC2)n1` [Compound 246]: in the data set on 2.2.15 cells, the CC50 was 141 µM.
Turning to `Ic1cccc(C=NNc2nc(Nc3ccc4ccccc4c3)nc(N3CCOCC3)n2)c1` [Compound 166], the CC50 with 2.2.15 cells came out at 252 µM.
For the molecule `CCN(CC)c1nc(Nc2cccc(Br)c2)nc(Nc2cc(C)ccc2C)n1` [Compound 202], the CC50 in the data set with 2.2.15 cells is greater than 300 µM.
For `COc1c(C=NNc2nc(NCc3ccccc3)nc(Nc3ccccc3)n2)cccc1[N+](=O)[O-]` [Compound 162], the CC50 with 2.2.15 cells was 436 µM.
The same measure, in the same setting: the value for `FC(F)(F)c1cccc(Nc2nc(Nc3ccccc3)nc(N3CCOCC3)n2)c1` [Compound 21] was 5.6 µM; that for `CCN(CC)CCNc1ccc2c3c(cccc13)C(=O)N(Nc1nc(NCc3ccccc3)nc(N(CC)CC)n1)C2=O` [Compound 27] was greater than 300 µM.
As to `Oc1ccc(Cl)cc1C=NNc1nc(Nc2ccc3ccccc3c2)nc(N2CCOCC2)n1` [Compound 160], the CC50 in the data set with 2.2.15 cells is greater than 300 µM.
As for `CC(=NNc1nc(Nc2ccccc2)nc(N2CCCC2)n1)c1ccc([N+](=O)[O-])cc1` [Compound 183], the CC50 with 2.2.15 cells is greater than 300 µM.
Take `COc1ccc(Nc2nc(NCCc3ccccc3)nc(N(C)C)n2)cc1OC` [Compound 252]: the CC50 with 2.2.15 cells worked out at 61 µM.
On the same count and under the same terms, the value for `Cc1ccc(Nc2nc(NN=Cc3ccc(O)cc3O)nc(Nc3ccc([N+](=O)[O-])cc3)n2)cc1C` [Compound 9] was 175 µM.
Take `COc1ccc(Br)cc1/C=N/Nc1nc(Nc2cccc([N+](=O)[O-])c2)nc(N2CCOCC2)n1` [Compound 28]: the CC50 in the data set on 2.2.15 cells was found to be 33 µM.
Regarding `Cc1ccc(Nc2nc(Nc3cccc(C(F)(F)F)c3)nc(N3CCOCC3)n2)cc1C` [Compound 251], the CC50 in the data set with 2.2.15 cells was 96 µM.
`Cc1ccc(Nc2nc(NN=Cc3ccc(Cl)cc3)nc(N3CCOCC3)n2)cc1` [Compound 249]: in the data set with 2.2.15 cells, the CC50 was found to be 134 µM.
Same read-out and setting: then `Cc1ccc(Nc2nc(NN=Cc3cc(I)ccc3O)nc(Nc3ccccc3)n2)c(C)c1` [Compound 159], with 101 µM; and `FC(F)(F)c1cccc(Nc2nc(Nc3cccc(Cl)c3)nc(N3CCOCC3)n2)c1` [Compound 247], with 136 µM.
`Cc1ccc(Nc2nc(NN=Cc3ccc(Cl)cc3)nc(N3CCOCC3)n2)cc1Cl` [Compound 196]: in the data set on 2.2.15 cells, the cytotoxic concentration (CC50) was found to be 381 µM.
On the same count and under the same terms, then `CCN(CC)c1nc(NN=Cc2ccc([N+](=O)[O-])cc2)nc(Nc2ccccc2)n1` [Compound 13], with greater than 300 µM; and `Clc1ccc(C=NNc2nc(Nc3ccccc3)nc(N3CCCC3)n2)cc1` [Compound 218], with greater than 300 µM.
Same read-out and setting: the value for `COc1ccccc1C=NNc1nc(NCc2ccccc2)nc(Nc2ccccc2)n1` [Compound 195] was 400 µM.
As for `O=C(CSc1nc(SCC(=O)Nc2ccccc2C(F)(F)F)nc(SCC(=O)Nc2ccccc2C(F)(F)F)n1)Nc1ccccc1C(F)(F)F` [Compound 212], the CC50 in the data set with 2.2.15 cells was greater than 300 µM.
On to `COc1c(Br)cc(Br)cc1C=NNc1nc(Nc2ccccc2)nc(N2CCCCC2)n1` [Compound 14], for which the CC50 in the data set on 2.2.15 cells is greater than 100 µM.
With `CCN(CC)c1nc(NCc2ccccc2)nc(N/N=C/c2ccccc2O)n1` [Compound 155, 2-hydroxybenzaldehyde N-[4-(benzylamino)-6-(diethylamino)-1,3,5-triazin-2-yl]hydrazone], the CC50 at 9 days in data set [1] came to 59 µM.
Consider `Brc1ccc(Nc2nc(NCc3ccccc3)nc(Nc3ccc(Br)cc3)n2)cc1` [Compound 230], for which, in the data set on 2.2.15 cells, the CC50 was 231 µM.
In the case of `Cc1ccc(Nc2nc(NCc3ccccc3)nc(NN=Cc3ccc(F)cc3F)n2)cc1C` [Compound 191], the CC50 with 2.2.15 cells is 836 µM.
`Cc1ccc(Nc2nc(NN=Cc3ccccc3)nc(Nc3ccccc3)n2)c(C)c1` [Compound 7]: in the data set with 2.2.15 cells, the CC50 was determined as 29 µM.
Take `Cc1ccc(Nc2nc(NCc3ccccc3)nc(NN=Cc3ccccc3F)n2)cc1C` [Compound 228]: in the data set with 2.2.15 cells, the CC50 was 243 µM.
Regarding `COc1ccc(Nc2nc(NN=Cc3cc(Br)cc(Br)c3O)nc(N3CCOCC3)n2)cc1` [Compound 200], in the data set with 2.2.15 cells, the CC50 is 309 µM.
In the case of `Cc1ccccc1Nc1nc(NN=Cc2ccc3c(c2)OCO3)nc(Nc2ccc([N+](=O)[O-])cc2)n1` [Compound 29], in the data set on 2.2.15 cells, the CC50 was found to be 15 µM.
Consider `Cc1ccc(Nc2nc(NN=Cc3ccccc3)nc(Nc3ccccc3)n2)cc1` [Compound 25], for which, in the data set on 2.2.15 cells, the CC50 was 105 µM.
On the same count and under the same terms, then `FC(F)(F)c1cccc(Nc2nc(NN=Cc3ccc(Cl)cc3)nc(N3CCOCC3)n2)c1` [Compound 120], with 45 µM.
As for `Cc1ccc(Nc2nc(NCc3ccccc3)nc(Nc3ccc([N+](=O)[O-])cc3)n2)cc1C` [Compound 194], in the data set with 2.2.15 cells, the CC50 came out at 626 µM.
As to `O=C(NNc1nc(Nc2ccccc2)nc(Nc2cccc(C(F)(F)F)c2)n1)c1cccc(Br)c1` [Compound 220], in the data set on 2.2.15 cells, the CC50 is greater than 300 µM.
`Oc1ccc2ccccc2c1C=NNc1nc(Nc2cccc3ccccc23)nc(N2CCOCC2)n1` [Compound 167]: the CC50 with 2.2.15 cells turned out to be 161 µM.
For the molecule `Brc1cccc(C=NNc2nc(Nc3ccccc3)nc(N3CCOCC3)n2)c1` [Compound 163], the CC50 in the data set on 2.2.15 cells worked out at 150 µM.
The same measure, in the same setting: then `O=[N+]([O-])c1ccc(Nc2nc(NCc3ccccc3)nc(N3CCOCC3)n2)cc1` [Compound 231], with 218 µM.
Same read-out and setting: then `CN(C)c1nc(NCc2ccccc2)nc(NN=Cc2ccc(Cl)cc2Cl)n1` [Compound 224], with greater than 300 µM; and `CCCCN(CCCC)c1nc(NN=Cc2cccc(Cl)c2)nc(Nc2ccc([N+](=O)[O-])cc2)n1` [Compound 35], with 3.9 µM; and `Fc1cccc(C=NNc2nc(Nc3ccccc3)nc(N3CCCC3)n2)c1` [Compound 201], with greater than 300 µM.
As to `Cc1ccc(Nc2nc(NCc3ccccc3)nc(NN=Cc3cc(Cl)ccc3O)n2)cc1C` [Compound 226], the CC50 with 2.2.15 cells came out at 280 µM.
As for `CCCCN(CCCC)c1nc(N/N=C/c2cc(I)cc(I)c2O)nc(Nc2ccc([N+](=O)[O-])cc2)n1` [Compound 8], the CC50 with 2.2.15 cells worked out at 196 µM.
In the case of `CCCCN(CCCC)c1nc(NN=Cc2ccc(OCC)c(O)c2)nc(Nc2ccc([N+](=O)[O-])cc2)n1` [Compound 23], in the data set with 2.2.15 cells, the CC50 came out at 145 µM.
As to `Cc1ccc(Nc2nc(NN=Cc3cccc(I)c3)nc(Nc3ccccc3)n2)cc1` [Compound 30], the CC50 with 2.2.15 cells turned out to be 230 µM.
`CN(C)c1nc(NCc2ccccc2)nc(NCc2cccs2)n1` [Compound 192]: the CC50 with 2.2.15 cells was 739 µM.
Still for that read-out and setting: then `Cc1cccc(C(=O)Oc2ccc(C=NNc3nc(N4CCCCC4)nc(N4CCCCC4)n3)cc2)c1` [Compound 181], with greater than 300 µM; and `CCCCN(CCCC)c1nc(NN=Cc2ccc3c(c2)OCO3)nc(Nc2ccc([N+](=O)[O-])cc2)n1` [Compound 11], with 27 µM.
On to `CC(=NNc1nc(Nc2ccccc2)nc(N2CCCC2)n1)c1ccc(F)cc1` [Compound 227], for which, in the data set with 2.2.15 cells, the CC50 came to 247 µM.
As to `CNc1nc(NN=Cc2ccccc2C(F)(F)F)nc(Nc2cccc(C(F)(F)F)c2)n1` [Compound 253], the CC50 in the data set with 2.2.15 cells turned out to be 193 µM.
With `Cc1ccc(C=NNc2nc(Nc3ccc([N+](=O)[O-])cc3)nc(Nc3ccccc3C)n2)cc1` [Compound 15], the CC50 in the data set on 2.2.15 cells was 0.6 µM.
Same read-out and setting: the value for `COc1c(C=NNc2nc(N3CCCC3)nc(N3CCOCC3)n2)cccc1[N+](=O)[O-]` [Compound 193] was 666 µM.
